Measurements: ChEMBL document CHEMBL1201862, “PubChem BioAssay data set” (2004)
Calls of active or inactive are those of the source.

Legend:
[1] = target: T1, Trace amine-associated receptor 1 (Homo sapiens, UniProt Q96RJ0); assay: Fluorescence-based cell-based high throughput dose response assay to identify agonists of the human trace amine associated receptor 1 (TAAR1).; format: functional
T1 sequence (Q96RJ0 whole entry): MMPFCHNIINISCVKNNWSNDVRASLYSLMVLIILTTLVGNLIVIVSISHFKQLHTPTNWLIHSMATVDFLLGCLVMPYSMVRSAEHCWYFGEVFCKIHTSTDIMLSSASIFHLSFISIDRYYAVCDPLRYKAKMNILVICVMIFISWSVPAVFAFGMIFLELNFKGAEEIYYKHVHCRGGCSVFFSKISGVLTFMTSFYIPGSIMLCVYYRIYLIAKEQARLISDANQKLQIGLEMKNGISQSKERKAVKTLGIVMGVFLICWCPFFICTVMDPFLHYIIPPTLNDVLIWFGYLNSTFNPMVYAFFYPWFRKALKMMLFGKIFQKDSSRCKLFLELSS

[2] = cells; format: functional, cell-based
[3] = cells; format: functional, cell-based; remark: listed apart in the source
[4] = target: T1, Trace amine-associated receptor 1; assay: Counterscreen for agonists of the human trace amine associated receptor 1 (hTAAR1): Fluorescence-based cell-based high throughput dose response assay to identify hTAAR1 agonist that also desensitize TAAR1 receptor response.; format: functional
[5] = HeLa cell cytotoxicity, dose response, cytotoxicity control for MgcRacGAP inhibitor project (AID 624300); format: functional
[6] = target: T2, Rac GTPase-activating protein 1 (Homo sapiens, UniProt Q9H0H5); assay: MgcRacGAP GTPase-activating activity inhibitors, confirmation, biochemical, ADP Hunter fluorescence, primary and confirmatory (AID 624330); format: functional
T2 sequence (Q9H0H5 whole entry): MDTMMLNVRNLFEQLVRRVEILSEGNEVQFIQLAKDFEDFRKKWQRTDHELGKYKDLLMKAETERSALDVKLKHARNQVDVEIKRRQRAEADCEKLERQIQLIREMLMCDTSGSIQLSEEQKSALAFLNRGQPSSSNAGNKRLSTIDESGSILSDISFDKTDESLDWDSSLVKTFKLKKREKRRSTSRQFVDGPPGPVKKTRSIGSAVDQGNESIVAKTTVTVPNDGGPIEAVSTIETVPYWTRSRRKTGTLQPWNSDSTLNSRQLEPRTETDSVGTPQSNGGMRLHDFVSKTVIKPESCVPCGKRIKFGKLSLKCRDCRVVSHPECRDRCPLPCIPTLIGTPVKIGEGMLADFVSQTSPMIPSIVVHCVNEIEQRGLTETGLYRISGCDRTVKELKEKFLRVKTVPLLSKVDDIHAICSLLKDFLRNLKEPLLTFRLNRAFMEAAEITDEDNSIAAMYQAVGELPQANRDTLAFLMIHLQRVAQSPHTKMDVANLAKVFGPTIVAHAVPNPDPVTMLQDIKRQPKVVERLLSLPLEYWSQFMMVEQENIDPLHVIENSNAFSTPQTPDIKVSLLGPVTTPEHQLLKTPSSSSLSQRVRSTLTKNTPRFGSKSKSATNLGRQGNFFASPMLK

[7] = target: T3, Adenosylmethionine-8-amino-7-oxononanoate aminotransferase (Mycobacterium tuberculosis, UniProt P9WQ81); assay: Mycobacterium tuberculosis BioA enzyme inhibitor Measured in Biochemical System Using Plate Reader - 2163-02_Inhibitor_Dose_CherryPick_Activity.; format: functional, Mycobacterium tuberculosis UT205
T3 sequence (P9WQ81 whole entry): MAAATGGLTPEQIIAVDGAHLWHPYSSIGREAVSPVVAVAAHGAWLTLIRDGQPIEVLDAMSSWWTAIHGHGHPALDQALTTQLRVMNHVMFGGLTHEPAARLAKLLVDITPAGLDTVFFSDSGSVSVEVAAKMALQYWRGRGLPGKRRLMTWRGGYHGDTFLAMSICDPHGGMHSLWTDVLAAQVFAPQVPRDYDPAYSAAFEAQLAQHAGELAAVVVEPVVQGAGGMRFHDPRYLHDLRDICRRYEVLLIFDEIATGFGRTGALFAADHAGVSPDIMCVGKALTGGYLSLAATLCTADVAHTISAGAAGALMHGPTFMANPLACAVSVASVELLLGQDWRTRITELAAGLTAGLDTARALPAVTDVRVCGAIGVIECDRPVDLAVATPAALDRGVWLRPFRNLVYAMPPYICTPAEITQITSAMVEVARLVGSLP

[8] = target: T4, Sentrin-specific protease 8 (Homo sapiens, UniProt Q96LD8); format: functional
T4 sequence (Q96LD8 whole entry): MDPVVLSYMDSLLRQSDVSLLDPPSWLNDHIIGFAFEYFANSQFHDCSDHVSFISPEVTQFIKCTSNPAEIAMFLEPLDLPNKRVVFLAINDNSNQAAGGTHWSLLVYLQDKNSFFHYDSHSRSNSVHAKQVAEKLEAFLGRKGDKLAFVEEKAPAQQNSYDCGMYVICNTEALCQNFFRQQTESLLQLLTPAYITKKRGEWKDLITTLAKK

[9] = target: T4, Sentrin-specific protease 8; format: functional; remark: listed apart in the source
[10] = Luminescence Cell-Based Dose Retest to Confirm Inhibitors of Cancer Stem Cells. [Related pubchem assays (depositor defined):AID2717, AID2721]; format: functional; conditions: Homo sapiens
[11] = Fluorescence-based cell-based high throughput dose response assay for inhibitors of the interaction of nucleotide-binding oligomerization domain containing 2 (NOD2) and the receptor-interacting serine-threonine kinase 2 (RIPK2).; format: functional; conditions: Homo sapiens
[12] = target: T5, Microphthalmia-associated transcription factor (Homo sapiens, UniProt O75030); assay: TRPM1 promoter luciferase signal decrease, dose response, MITF inhibitor project, cell-based, SK-MEL-5, cherry-picked, set 3 (AID 493073); format: functional
T5 sequence (O75030 whole entry): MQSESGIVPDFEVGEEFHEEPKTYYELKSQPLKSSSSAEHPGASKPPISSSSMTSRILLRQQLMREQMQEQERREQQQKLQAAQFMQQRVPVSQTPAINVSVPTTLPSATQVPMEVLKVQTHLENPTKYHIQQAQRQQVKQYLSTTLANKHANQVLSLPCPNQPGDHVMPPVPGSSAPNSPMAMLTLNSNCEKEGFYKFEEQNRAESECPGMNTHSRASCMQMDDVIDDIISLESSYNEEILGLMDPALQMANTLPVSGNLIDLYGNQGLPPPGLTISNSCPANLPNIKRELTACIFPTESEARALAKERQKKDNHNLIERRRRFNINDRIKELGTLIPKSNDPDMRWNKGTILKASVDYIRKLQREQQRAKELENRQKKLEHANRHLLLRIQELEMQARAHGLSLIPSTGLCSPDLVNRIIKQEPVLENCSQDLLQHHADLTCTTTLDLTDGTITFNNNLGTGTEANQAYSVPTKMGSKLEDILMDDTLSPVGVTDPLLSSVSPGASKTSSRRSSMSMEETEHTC

[13] = target: T6, Cytochrome P450 1A2 (Homo sapiens, UniProt P05177);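 note: PubChem cytochrome P450 panel assay, CYP1A2 panel member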
T6 sequence (P05177 whole entry): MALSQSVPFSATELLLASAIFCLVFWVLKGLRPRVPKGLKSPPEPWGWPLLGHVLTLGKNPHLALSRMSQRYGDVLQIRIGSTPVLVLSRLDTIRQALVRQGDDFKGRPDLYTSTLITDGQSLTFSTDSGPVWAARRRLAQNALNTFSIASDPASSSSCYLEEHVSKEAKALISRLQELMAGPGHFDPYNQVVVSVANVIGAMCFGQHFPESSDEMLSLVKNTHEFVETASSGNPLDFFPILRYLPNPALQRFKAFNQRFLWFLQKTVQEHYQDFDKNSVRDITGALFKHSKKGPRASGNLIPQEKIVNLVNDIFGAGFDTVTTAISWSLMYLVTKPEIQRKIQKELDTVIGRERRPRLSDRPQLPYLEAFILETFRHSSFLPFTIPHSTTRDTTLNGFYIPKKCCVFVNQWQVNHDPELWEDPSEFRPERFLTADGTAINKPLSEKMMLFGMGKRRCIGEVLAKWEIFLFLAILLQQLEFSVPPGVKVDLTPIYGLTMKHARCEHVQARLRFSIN

[14] = target: Genome polyprotein (dengue virus type 2, UniProt P29990); assay: Dengue-2 NS5 methyltransferase inhibitors, primary screen, biochemical, confirmation dose response (AID 588689); format: functional
Sequence of Genome polyprotein (P29990 2492-3391 limits assumed): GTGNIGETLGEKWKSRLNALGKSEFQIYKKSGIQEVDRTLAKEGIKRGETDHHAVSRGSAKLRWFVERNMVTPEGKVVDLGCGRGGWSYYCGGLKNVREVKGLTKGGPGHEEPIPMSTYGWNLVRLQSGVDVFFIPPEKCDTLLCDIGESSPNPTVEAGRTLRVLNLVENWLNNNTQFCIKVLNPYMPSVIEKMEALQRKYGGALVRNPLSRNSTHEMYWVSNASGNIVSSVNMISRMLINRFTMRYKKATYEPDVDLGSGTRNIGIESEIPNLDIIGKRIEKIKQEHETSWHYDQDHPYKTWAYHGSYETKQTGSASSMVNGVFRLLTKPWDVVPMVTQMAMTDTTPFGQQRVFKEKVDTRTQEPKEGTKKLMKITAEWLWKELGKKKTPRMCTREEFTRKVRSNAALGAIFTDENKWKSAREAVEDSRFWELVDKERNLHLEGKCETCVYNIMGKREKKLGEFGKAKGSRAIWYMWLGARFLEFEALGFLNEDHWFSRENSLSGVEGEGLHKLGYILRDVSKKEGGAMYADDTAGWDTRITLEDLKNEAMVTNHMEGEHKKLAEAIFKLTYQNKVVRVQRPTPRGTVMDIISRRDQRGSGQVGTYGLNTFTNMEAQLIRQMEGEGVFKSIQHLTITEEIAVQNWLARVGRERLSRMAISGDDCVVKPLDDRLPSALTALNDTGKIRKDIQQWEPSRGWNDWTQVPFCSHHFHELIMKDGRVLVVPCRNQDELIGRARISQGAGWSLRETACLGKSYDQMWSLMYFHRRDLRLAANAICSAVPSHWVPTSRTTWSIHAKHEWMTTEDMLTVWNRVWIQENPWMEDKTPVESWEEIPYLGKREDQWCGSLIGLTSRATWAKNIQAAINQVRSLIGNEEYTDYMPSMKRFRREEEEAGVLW

[15] = target: Cytochrome P450 2D6 (Homo sapiens, UniProt P10635);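 note: CYP2D6 member of a cytochrome P450 panel assay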
Sequence of Cytochrome P450 2D6 (P10635 whole entry): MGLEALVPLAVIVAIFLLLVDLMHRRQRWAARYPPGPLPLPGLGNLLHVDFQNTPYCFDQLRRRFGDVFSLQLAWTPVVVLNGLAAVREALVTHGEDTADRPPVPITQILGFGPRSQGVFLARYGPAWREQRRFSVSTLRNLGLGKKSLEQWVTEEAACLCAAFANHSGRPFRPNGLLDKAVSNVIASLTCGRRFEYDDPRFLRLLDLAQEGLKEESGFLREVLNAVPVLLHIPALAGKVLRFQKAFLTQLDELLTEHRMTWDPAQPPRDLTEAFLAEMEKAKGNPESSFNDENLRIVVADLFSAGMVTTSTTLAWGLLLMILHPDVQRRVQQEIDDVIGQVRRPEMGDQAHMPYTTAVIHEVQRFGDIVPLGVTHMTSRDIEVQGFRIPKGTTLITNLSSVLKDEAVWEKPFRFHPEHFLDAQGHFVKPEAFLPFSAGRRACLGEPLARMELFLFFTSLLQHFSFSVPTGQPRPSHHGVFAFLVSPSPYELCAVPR

[16] = target: T7, Protein RecA (Mycobacterium tuberculosis, UniProt P9WHJ3); assay: Fluorescence Cell-Free Homogeneous Dose Retest to Identify Inhibitors of RecA-Intein Splicing Activity. [Related pubchem assays (depositor defined):AID2097, AID2223, AID489010, AID492950]; format: functional
T7 sequence (P9WHJ3 whole entry): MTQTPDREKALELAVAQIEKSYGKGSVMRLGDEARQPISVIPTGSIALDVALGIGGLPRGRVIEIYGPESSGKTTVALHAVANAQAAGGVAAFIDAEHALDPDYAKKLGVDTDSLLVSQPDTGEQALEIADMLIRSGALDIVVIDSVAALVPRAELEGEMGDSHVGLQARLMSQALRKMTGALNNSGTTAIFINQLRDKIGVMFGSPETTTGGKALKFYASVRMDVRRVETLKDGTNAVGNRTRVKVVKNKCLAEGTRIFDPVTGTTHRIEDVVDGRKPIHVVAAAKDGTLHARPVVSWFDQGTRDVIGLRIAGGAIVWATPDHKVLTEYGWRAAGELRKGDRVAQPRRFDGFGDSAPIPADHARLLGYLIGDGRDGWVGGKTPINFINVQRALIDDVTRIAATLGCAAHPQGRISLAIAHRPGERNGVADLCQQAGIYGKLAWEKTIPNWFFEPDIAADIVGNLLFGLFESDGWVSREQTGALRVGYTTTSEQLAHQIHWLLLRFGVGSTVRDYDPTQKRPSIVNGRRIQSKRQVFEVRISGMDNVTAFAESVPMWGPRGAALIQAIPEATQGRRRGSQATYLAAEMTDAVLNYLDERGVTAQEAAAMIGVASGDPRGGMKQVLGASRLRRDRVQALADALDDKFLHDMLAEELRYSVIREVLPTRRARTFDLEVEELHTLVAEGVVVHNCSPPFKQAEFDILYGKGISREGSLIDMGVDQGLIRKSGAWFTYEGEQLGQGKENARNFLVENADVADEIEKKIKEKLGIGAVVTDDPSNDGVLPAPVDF

[17] = target: T8, Replicative DNA helicase DnaB (Mycobacterium tuberculosis, UniProt P9WMR3); assay: DnaB intein splicing inhibitors, dose response, biochemical, cell-free fluorescence (AID 449749); format: functional
T8 sequence (P9WMR3 whole entry): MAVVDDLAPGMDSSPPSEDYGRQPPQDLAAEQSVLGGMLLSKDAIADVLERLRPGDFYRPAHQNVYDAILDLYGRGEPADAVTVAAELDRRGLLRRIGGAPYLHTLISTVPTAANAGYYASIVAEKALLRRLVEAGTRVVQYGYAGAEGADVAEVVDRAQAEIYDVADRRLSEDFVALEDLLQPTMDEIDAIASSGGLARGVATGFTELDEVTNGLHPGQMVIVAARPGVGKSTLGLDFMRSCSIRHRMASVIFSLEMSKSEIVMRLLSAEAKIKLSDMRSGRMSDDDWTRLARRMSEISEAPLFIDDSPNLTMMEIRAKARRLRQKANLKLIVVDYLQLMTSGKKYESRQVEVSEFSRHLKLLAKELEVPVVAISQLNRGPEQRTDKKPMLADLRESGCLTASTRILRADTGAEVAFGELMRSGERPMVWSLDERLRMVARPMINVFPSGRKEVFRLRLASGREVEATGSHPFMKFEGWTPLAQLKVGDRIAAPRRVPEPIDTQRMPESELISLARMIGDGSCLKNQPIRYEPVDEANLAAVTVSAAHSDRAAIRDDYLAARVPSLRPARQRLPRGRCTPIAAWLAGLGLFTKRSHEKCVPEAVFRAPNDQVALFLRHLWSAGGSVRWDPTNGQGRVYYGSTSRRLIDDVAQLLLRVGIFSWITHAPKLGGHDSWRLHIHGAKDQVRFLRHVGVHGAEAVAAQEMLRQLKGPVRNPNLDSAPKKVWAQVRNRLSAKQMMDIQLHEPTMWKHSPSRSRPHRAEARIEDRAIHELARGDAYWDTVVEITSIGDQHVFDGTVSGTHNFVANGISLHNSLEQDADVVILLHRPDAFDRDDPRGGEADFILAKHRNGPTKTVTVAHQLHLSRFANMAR

Structure (SMILES): O=C(O)/C=C/C(=O)NCCCc1ccccc1
- EC50 [1]: 7.06 µM (active)
- IC50 [2]: > 29.9 µM (inactive)
- EC50 [3]: > 29.9 µM (inactive)
- IC50 [4]: > 29.9 µM (inactive)

Structure (SMILES): COc1ccccc1-n1c(/C=C/c2ccc(O)cc2)nc2ccccc2c1=O
- CC50 [5]: 100 µM (active)
- IC50 [6]: 106 µM (active)

Structure (SMILES): CC1=CC2=NC(=O)/C(=C\c3cc(C)n(-c4ccccc4F)c3C)C(=N)N2O1
- AC50 [7]: 0.247 µM (active)

Structure (SMILES): Cc1ccn2c(CNCC3OCCc4ccccc43)c(C(=O)N3CCCCCC3)nc2c1 (configuration not stated)
- EC50 [1]: 4.98 µM (active)
- IC50 [2]: > 29.9 µM (inactive)
- EC50 [3]: > 29.9 µM (inactive)
- IC50 [4]: 9.37 µM (active)

Structure (SMILES): Oc1ccc(-c2[nH]ncc2-c2ccc(Cl)cc2)c(O)c1
- CC50 [5]: 100 µM (active)
- IC50 [6]: 90.8 µM (active)

Structure (SMILES): COC/C=C/C1=CC2=CC(=O)C(C)(OC(=O)c3cnc4ccccc4n3)C(=O)C2=CN1Cc1ccccc1 (configuration not stated)
- IC50 [8]: 12.7 µM (active)
- IC50 [9]: 18.9 µM (active)

Structure (SMILES): O=[N+]([O-])c1cc(S(=O)(=O)N2CCCCCC2)ccc1F
- AC50 [10]: 3.09 µM (active)
- IC50 [11]: 1.53 µM (active)
- AC50 [12]: 9.53 µM (active)

Structure (SMILES): CC(=O)OCC(=O)[C@@]1(OC(C)=O)[C@@H](C)C[C@H]2[C@@H]3C[C@H](F)C4=CC(=O)C=C[C@]4(C)[C@@]3(F)[C@@H](O)C[C@@]21C [DIFLORASONE DIACETATE]
- AC50 [7]: 9.06 µM (active)

Structure (SMILES): Cc1nc2nc(SCC(=O)N3CCC4(CC3)OCCO4)nn2c(C)c1Cc1ccccc1
- AC50 [7]: 2.82 µM (active)

Structure (SMILES): Cc1nn(-c2ccc(F)cc2)c(O)c1C(c1cccc(O)c1)c1c(C)[nH]n(-c2ccc(F)cc2)c1=O (configuration not stated)
- AC50 [13]: 25.1 µM (inconclusive)
- IC50 [8]: 12.2 µM (active)
- IC50 [14]: 55.5 µM (active)
- AC50 [15]: 28.2 µM (inconclusive)
- EC50 [16]: 0.856 µM (active)
- AC50 [17]: 1.06 µM (active)
- IC50 [9]: 14.6 µM (active)
